The assay deals with cercariae of Schistosoma mansoni (Puerto Rican strain). It counts as cell-based. Particulars: 50 micromolar. The protocol:
A modification of the assay developed by Clegg and Smithers (Clegg & Smithers, 1972. Int. J. Parasitol. 2, 79-98.) was used. Two Plexiglass chambers were manufactured which could be screwed together to hold a 25×25 mm section of skin at the interface of the two chambers. Human skin was obtained from autopsy (6-12 hours following death) or from amputation specimens received at the Department of Surgical Pathology, UCSF. The chamber below the skin was filled with tissue culture medium (DME H16) prewarmed to 37° C. After the skin was clamped, the upper chamber was filled with water containing 9000 cercariae of Schistosoma mansoni (Puerto Rican strain). Cercariae will follow a thermal gradient, and they are stimulated by the lipid on the surface of skin to invade (Stirewalt, 1974. Adv. Parasitol. 12, 115-180). After one hour exposure to cercariae the skin was removed, fixed in 10% phosphate buffered formalin for 24 h, and sectioned at 2 mm intervals. Following dehydration and routine paraffin embedding, 5μ sections were cut by microtome and stained with hemotoxylin and eosin. The number of cercariae which had invaded epidermis or dermis was counted in each section. Percent inhibition of invasion was calculated as [formula] All assays were done in triplicate and standard deviation of the mean calculated. […]

As to `COC(=O)CCC(=O)N[C@@H](C)C(=O)N[C@@H](C)C(=O)N1CCC[C@H]1C(=O)N[C@@H](Cc1ccccc1)B(O)O` [MeO-Suc-Ala-Ala-Pro-(L)boro-Phe-OH], the “cercariae inhibited from invading skin” value was determined as 50%.
